According to ChEMBL document CHEMBL5543164 (J Med Chem, 2024):
Each block holds one compound with its values, some of them ahead of it.

Columns and labels:
[1] = biological target: Phosphatidylinositol 4,5-bisphosphate 3-kinase catalytic subunit gamma isoform (Homo sapiens, UniProt P48736); test: Inhibition of PI3Kgamma (unknown origin) by ADP-glo plus luminescence assay
[2] = biological target: Phosphatidylinositol 4,5-bisphosphate 3-kinase catalytic subunit beta isoform (Homo sapiens, UniProt P42338)
Phosphatidylinositol 4,5-bisphosphate 3-kinase catalytic subunit beta isoform, sequence (P42338 whole entry, canonical isoform): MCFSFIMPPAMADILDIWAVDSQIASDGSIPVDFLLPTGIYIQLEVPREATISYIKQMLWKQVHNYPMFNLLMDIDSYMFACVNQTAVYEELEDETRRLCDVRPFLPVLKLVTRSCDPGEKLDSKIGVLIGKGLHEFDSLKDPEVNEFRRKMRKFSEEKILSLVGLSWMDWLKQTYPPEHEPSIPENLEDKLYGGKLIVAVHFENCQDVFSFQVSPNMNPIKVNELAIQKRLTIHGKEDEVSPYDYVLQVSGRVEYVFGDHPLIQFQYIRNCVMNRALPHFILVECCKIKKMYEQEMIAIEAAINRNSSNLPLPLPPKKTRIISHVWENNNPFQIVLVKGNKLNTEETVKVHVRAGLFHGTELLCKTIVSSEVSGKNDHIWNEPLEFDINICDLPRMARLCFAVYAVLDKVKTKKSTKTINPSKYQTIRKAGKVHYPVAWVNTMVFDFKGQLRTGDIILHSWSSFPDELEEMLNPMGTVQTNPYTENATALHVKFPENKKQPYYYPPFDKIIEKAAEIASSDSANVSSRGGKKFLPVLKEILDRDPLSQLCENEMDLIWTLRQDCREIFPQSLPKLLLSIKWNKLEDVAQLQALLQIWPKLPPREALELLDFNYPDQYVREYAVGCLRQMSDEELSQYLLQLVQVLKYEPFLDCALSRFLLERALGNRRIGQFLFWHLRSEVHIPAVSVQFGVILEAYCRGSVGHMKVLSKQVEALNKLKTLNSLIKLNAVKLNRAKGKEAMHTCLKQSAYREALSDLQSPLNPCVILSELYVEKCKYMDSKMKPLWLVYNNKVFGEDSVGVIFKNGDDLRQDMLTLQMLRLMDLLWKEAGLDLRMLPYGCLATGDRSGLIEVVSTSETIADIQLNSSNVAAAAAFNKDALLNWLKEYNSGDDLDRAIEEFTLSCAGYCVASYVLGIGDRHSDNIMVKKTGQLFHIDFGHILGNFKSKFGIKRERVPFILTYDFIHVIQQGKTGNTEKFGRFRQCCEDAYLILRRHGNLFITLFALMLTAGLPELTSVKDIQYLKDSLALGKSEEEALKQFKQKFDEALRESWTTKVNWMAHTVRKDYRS

[3] = biological target: T1, Phosphatidylinositol 4,5-bisphosphate 3-kinase catalytic subunit delta isoform (Homo sapiens, UniProt O00329)
T1 sequence (O00329 whole entry): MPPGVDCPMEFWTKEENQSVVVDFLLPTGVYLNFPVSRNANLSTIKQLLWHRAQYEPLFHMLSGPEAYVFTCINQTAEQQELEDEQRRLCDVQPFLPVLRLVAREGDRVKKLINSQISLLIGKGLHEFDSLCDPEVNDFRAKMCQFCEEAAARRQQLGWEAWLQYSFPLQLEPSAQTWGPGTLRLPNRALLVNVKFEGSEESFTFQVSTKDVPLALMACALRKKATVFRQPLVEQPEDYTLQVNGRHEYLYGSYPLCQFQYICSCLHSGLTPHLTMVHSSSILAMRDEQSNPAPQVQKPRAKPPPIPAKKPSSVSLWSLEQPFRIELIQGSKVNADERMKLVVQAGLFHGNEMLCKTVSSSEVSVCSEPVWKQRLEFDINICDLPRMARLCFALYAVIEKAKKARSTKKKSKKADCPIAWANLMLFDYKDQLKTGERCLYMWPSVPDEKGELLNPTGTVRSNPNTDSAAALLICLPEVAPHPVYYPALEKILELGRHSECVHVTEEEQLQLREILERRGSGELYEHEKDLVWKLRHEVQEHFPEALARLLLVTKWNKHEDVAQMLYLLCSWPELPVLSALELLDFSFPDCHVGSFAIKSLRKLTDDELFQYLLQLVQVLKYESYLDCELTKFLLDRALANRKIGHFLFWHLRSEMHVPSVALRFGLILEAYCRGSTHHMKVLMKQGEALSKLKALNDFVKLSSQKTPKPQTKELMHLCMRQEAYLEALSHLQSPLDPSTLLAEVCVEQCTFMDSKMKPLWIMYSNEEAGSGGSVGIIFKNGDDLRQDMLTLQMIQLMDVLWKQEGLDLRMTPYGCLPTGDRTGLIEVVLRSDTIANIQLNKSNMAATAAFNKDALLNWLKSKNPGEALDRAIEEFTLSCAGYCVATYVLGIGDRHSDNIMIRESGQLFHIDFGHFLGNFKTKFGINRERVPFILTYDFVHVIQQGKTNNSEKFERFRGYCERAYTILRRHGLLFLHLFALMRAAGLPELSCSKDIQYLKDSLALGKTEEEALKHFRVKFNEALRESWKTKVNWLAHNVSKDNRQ

[4] = biological target: Phosphatidylinositol 4,5-bisphosphate 3-kinase catalytic subunit alpha isoform (Homo sapiens, UniProt P42336); test: Inhibition of PI3Kalpha (unknown origin) by ADP-glo plus luminescence assay
Phosphatidylinositol 4,5-bisphosphate 3-kinase catalytic subunit alpha isoform, sequence (P42336 whole entry, canonical isoform): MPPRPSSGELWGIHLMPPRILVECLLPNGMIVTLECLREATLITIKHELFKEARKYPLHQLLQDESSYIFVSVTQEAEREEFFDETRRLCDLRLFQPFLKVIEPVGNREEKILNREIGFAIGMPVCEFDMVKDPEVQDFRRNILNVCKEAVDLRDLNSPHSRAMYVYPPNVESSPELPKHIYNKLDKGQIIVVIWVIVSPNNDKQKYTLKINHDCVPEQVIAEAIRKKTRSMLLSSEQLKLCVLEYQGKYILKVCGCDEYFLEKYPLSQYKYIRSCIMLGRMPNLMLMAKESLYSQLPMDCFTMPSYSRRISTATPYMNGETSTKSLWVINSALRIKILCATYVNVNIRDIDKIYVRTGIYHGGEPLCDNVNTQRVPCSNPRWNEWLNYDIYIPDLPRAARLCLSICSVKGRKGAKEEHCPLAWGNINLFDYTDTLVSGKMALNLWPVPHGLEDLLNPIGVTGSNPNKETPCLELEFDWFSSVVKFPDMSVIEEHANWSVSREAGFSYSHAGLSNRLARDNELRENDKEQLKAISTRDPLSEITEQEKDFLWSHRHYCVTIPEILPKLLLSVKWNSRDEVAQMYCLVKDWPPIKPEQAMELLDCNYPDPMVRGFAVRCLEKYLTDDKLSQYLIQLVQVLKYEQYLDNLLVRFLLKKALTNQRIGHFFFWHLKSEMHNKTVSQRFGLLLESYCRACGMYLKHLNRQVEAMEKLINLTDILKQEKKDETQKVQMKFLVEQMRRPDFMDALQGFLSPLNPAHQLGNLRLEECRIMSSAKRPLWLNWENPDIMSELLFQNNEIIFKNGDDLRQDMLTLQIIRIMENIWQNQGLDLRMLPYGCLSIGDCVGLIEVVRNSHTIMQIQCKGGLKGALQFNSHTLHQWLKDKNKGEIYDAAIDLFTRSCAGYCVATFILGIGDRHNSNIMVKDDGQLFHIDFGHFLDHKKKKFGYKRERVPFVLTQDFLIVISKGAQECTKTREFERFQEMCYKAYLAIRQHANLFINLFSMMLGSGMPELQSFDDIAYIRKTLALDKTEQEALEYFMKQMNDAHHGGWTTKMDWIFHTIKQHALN

MCF7 [5] = test: Antiproliferative activity against human MCF7 cells assessed as inhibition of cell growth incubated for 48 hrs by CCK-8 assay; assay type: functional, cell-based; conditions: MCF7, 48 h
MDA-MB-231 = test: Antiproliferative activity against human MDA-MB-231 cells assessed as inhibition of cell growth incubated for 48 hrs by CCK-8 assay; assay type: functional, cell-based; conditions: MDA-MB-231, 48 h
HepG2 = test: Antiproliferative activity against human HepG2 cells assessed as inhibition of cell growth incubated for 48 hrs by CCK-8 assay; assay type: functional, cell-based; conditions: HepG2, 48 h
HeLa = test: Antiproliferative activity against human HeLa cells assessed as inhibition of cell growth incubated for 48 hrs by CCK-8 assay; assay type: functional, cell-based
HCT-116 = test: Antiproliferative activity against human HCT-116 cells assessed as inhibition of cell growth incubated for 48 hrs by CCK-8 assay; assay type: functional, cell-based; conditions: HCT-116, 48 h
CNE-2 = test: Antiproliferative activity against human CNE-2 cells assessed as inhibition of cell growth incubated for 48 hrs by CCK-8 assay; assay type: functional, cell-based; conditions: CNE-2, 48 h
[6] = Antiproliferative activity against human L02 cells assessed as inhibition of cell growth incubated for 48 hrs by CCK-8 assay; assay type: toxicity, cell-based
[7] = Selectivity index, ratio of IC50 for antiproliferative activity against human L02 cells assessed as inhibition of cell growth to IC50 for antiproliferative activity against human HepG2 cells assessed as inhibition of cell growth; assay type: toxicity, cell-based; conditions: L02 cells versus HepG2 cells, read-out: Ratio IC50
[8] = biological target: Serine/threonine-protein kinase mTOR (Homo sapiens, UniProt P42345)
MCF7 [9] = test: Induction of apoptosis in human MCF7 cells assessed as early apoptotic cells at 2.5 uM incubated for 24 hrs Annexin FITC/PI staining based flow cytometry analysis (reference value: 0.87%); assay type: functional
MCF7 [10] = test: Induction of apoptosis in human MCF7 cells assessed as late apoptotic cells at 2.5 uM incubated for 24 hrs Annexin FITC/PI staining based flow cytometry analysis (reference value: 5.84%); assay type: functional
MCF7 [11] = test: Induction of apoptosis in human MCF7 cells assessed as necrotic cells at 2.5 uM incubated for 24 hrs Annexin FITC/PI staining based flow cytometry analysis (reference value: 1.33%); assay type: functional
MCF7 [12] = test: Induction of apoptosis in human MCF7 cells assessed as early apoptotic cells at 5 uM incubated for 24 hrs Annexin FITC/PI staining based flow cytometry analysis (reference value: 0.87%); assay type: functional
MCF7 [13] = test: Induction of apoptosis in human MCF7 cells assessed as late apoptotic cells at 5 uM incubated for 24 hrs Annexin FITC/PI staining based flow cytometry analysis (reference value: 5.84%); assay type: functional
MCF7 [14] = test: Induction of apoptosis in human MCF7 cells assessed as necrotic cells at 5 uM incubated for 24 hrs Annexin FITC/PI staining based flow cytometry analysis (reference value: 1.33%); assay type: functional
MCF7 [15] = test: Induction of apoptosis in human MCF7 cells assessed as early apoptotic cells at 10 uM incubated for 24 hrs Annexin FITC/PI staining based flow cytometry analysis (reference value: 0.87%); assay type: functional
MCF7 [16] = test: Induction of apoptosis in human MCF7 cells assessed as late apoptotic cells at 10 uM incubated for 24 hrs Annexin FITC/PI staining based flow cytometry analysis (reference value: 5.84%); assay type: functional
MCF7 [17] = test: Induction of apoptosis in human MCF7 cells assessed as necrotic cells at 10 uM incubated for 24 hrs Annexin FITC/PI staining based flow cytometry analysis (reference value: 1.33%); assay type: functional
MCF7 [18] = test: Antitumor activity against human MCF7 cells xenografted in BALB/c mouse assessed as tumor size at 20 mg/kg, iv measured every 2 days for 19 days (reference value: 1178 +/- 246mm3); assay type: functional; conditions: time 19 day
MCF7 [19] = test: Antitumor activity against human MCF7 cells xenografted in BALB/c mouse assessed as tumor size at 20 mg/kg, iv administered as lipodisc encapsulated form measured every 2 days for 19 days (reference value: 1178 +/- 246mm3); assay type: functional; conditions: time 19 day
MCF7 [20] = test: Antitumor activity against human MCF7 cells xenografted in BALB/c mouse assessed as tumor growth inhibition at 20 mg/kg, iv measured every 2 days for 19 days; assay type: functional; conditions: MCF7, 456 h, time 19 day, read-out: TGI
MCF7 [21] = test: Antitumor activity against human MCF7 cells xenografted in BALB/c mouse assessed as tumor growth inhibition at 20 mg/kg, iv administered as lipodisc encapsulated form measured every 2 days for 19 days; assay type: functional; conditions: MCF7, 456 h, time 19 day, read-out: TGI
MCF7 [22] = conditions: dose 20 mg/kg; route iv; time 19 day
MCF7 [23] = conditions: dose 20 mg/kg; route iv; time 19 day; remark: listed apart in the source
MCF7 [24] = test: cells; conditions: Homo sapiens, MCF7, 24 h, read-out: Activity
MCF7 [25] = test: cells; conditions: Homo sapiens, MCF7, 24 h, read-out: Activity; remark: listed apart in the source
MCF7 [26] = test: cells; conditions: Homo sapiens, MCF7, 24 h, read-out: Activity; remark: listed apart in the source
in vivo [27] = conditions: BALB/c, mouse, iv, 5 mg/kg
in vivo [28] = conditions: BALB/c, mouse, iv, 5 mg/kg; remark: listed apart in the source
in vivo [29] = conditions: BALB/c, mouse, iv, 5 mg/kg; remark: listed apart in the source
in vivo [30] = conditions: BALB/c, mouse, iv, 5 mg/kg; remark: listed apart in the source
in vivo [31] = conditions: BALB/c, mouse, iv, 5 mg/kg; remark: listed apart in the source
in vivo [32] = conditions: BALB/c, mouse, iv, 5 mg/kg; remark: listed apart in the source
in vivo [33] = conditions: BALB/c, mouse, iv, 5 mg/kg; remark: listed apart in the source
in vivo [34] = conditions: BALB/c, mouse, iv, 5 mg/kg; remark: listed apart in the source
in vivo [35] = conditions: BALB/c, mouse, iv
in vivo [36] = conditions: BALB/c, mouse, iv; remark: listed apart in the source

Phosphatidylinositol 4,5-bisphosphate 3-kinase catalytic subunit gamma isoform, sequence (P48736 whole entry, canonical isoform): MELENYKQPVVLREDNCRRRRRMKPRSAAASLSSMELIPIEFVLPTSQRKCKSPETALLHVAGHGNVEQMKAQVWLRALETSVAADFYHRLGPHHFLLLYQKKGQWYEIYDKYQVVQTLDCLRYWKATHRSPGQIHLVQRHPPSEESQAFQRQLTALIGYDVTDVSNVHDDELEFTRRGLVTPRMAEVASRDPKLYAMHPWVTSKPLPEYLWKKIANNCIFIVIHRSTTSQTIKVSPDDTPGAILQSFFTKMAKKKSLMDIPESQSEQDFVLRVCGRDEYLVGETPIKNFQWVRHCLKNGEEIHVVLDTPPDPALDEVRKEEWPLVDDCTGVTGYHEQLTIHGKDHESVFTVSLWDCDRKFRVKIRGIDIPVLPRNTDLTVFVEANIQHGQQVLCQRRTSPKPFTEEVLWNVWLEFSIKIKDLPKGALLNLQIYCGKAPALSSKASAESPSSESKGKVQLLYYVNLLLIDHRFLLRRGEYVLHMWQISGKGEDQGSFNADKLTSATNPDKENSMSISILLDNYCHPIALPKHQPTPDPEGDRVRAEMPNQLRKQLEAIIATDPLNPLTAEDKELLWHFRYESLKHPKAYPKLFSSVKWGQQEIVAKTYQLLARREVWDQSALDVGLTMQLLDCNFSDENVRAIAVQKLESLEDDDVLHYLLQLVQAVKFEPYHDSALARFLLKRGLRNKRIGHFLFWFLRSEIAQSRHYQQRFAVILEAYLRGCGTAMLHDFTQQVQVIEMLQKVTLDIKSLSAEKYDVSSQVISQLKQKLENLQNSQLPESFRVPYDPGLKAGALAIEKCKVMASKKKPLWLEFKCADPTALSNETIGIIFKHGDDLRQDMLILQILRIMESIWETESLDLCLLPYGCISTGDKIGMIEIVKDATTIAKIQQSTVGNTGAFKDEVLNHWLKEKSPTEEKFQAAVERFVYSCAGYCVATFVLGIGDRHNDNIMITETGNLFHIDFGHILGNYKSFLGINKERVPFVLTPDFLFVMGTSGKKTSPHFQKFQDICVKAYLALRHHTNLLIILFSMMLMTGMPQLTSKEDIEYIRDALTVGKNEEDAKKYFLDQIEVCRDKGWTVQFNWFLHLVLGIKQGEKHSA

Compound: O=C(Nc1ccc(-c2nc(N3CCOCC3)nc(N3C4CCC3COC4)n2)cc1)Nc1ccc2c(c1)COC2=O
IC50 [4]: 354 nM
IC50 [1]: 1940 nM
IC50 (MCF7 [5]): 890 nM
IC50 (MDA-MB-231): 4430 nM
IC50 (HepG2): 130 nM
IC50 (HeLa): 2150 nM
IC50 (HCT-116): 732 nM
IC50 (CNE-2): 230 nM
IC50 at 48 h [6]: 4590 nM
selectivity ratio [7]: 35.3
IC50 [8]: 1.7 nM
IC50 [2]: 782 nM
IC50 [3]: 1830 nM

Compound: O=C(Nc1ccc(-c2nc(N3CCOCC3)nc(N3CC4CCC(C3)O4)n2)cc1)Nc1ccc2c(c1)COC2=O
IC50 [8]: 4.6 nM

Compound: CN(C)C1CCN(C(=O)c2ccc(NC(=O)Nc3ccc(-c4nc(N5CCOCC5)nc(N5CCOCC5)n4)cc3)cc2)CC1 [GEDATOLISIB]
Activity (MCF7 [9]): 0.68%
Activity (MCF7 [10]): 7.35%
Activity (MCF7 [11]): 1.59%
Activity (MCF7 [12]): 0.64%
Activity (MCF7 [13]): 8.41%
Activity (MCF7 [14]): 1.95%
Activity (MCF7 [15]): 0.82%
Activity (MCF7 [16]): 11.9%
Activity (MCF7 [17]): 1.77%
Activity (MCF7 [18]): 591 mm3
Activity (MCF7 [19]): 559 mm3
inhibition in vivo at 20 mg/kg (MCF7 [20]): 53.3%
inhibition in vivo at 20 mg/kg (MCF7 [21]): 55.9%
T/C (MCF7 [22]): 46.7%
T/C (MCF7 [23]): 44.1%
viability at 2.5 µM (MCF7 [24]): 90.4%
viability at 5 µM (MCF7 [25]): 89%
viability at 10 µM (MCF7 [26]): 85.5%
AUC(0-t) at 12 h (in vivo [27]): 5280 ng·h/mL
AUC(0-t) at 12 h (in vivo [28]): 31500 ng·h/mL
AUC(0-inf) at 12 h (in vivo [29]): 5640 ng·h/mL
AUC(0-inf) at 12 h (in vivo [30]): 32100 ng·h/mL
half-life at 12 h (in vivo [31]): 1.3 h
half-life at 12 h (in vivo [32]): 7.4 h
Cmax at 12 h (in vivo [33]): 10700 ng/mL
Cmax at 12 h (in vivo [34]): 44000 ng/mL
MTD at […] (in vivo [35]): 20 mg/kg
MTD at […] (in vivo [36]): 30 mg/kg

Other lines, results leading:

IC50 [1]: 25.5 nM
IC50 [2]: 162 nM
IC50 [3]: 98.3 nM
Compound: O=C(Nc1ccc(-c2nc(N3CCOCC3)nc(N3CCOCC3)n2)cc1)Nc1ccc2c(c1)CNC2=O

IC50 [1]: 228 nM
IC50 [2]: 157 nM
IC50 [3]: 234 nM
Compound: O=C(Nc1ccc(-c2nc(N3CCOCC3)nc(N3CCO[C@@H](CO)C3)n2)cc1)Nc1ccc2c(c1)COC2=O

IC50 [1]: 162 nM
IC50 [2]: 129 nM
IC50 [3]: 248 nM
Compound: O=C(Nc1ccc(-c2nc(N3CCOCC3)nc(N3CCOCC3)n2)cc1)Nc1ccc2c(c1)COC2=O

IC50 [4]: 45.4 nM
IC50 [8]: 7.2 nM
Compound: CC1OC(=O)c2cc(NC(=O)Nc3ccc(-c4nc(N5CCOCC5)nc(N5CCOCC5)n4)cc3)ccc21 (stereo not drawn)
